Drawing on ChEMBL document CHEMBL3886974, “Imidazopyrazines” (2016), this text covers IC50 for 2 compounds.

This assay has as its target T1, Dual specificity protein kinase TTK (Homo sapiens, UniProt P33981).
T1 sequence (P33981 whole entry): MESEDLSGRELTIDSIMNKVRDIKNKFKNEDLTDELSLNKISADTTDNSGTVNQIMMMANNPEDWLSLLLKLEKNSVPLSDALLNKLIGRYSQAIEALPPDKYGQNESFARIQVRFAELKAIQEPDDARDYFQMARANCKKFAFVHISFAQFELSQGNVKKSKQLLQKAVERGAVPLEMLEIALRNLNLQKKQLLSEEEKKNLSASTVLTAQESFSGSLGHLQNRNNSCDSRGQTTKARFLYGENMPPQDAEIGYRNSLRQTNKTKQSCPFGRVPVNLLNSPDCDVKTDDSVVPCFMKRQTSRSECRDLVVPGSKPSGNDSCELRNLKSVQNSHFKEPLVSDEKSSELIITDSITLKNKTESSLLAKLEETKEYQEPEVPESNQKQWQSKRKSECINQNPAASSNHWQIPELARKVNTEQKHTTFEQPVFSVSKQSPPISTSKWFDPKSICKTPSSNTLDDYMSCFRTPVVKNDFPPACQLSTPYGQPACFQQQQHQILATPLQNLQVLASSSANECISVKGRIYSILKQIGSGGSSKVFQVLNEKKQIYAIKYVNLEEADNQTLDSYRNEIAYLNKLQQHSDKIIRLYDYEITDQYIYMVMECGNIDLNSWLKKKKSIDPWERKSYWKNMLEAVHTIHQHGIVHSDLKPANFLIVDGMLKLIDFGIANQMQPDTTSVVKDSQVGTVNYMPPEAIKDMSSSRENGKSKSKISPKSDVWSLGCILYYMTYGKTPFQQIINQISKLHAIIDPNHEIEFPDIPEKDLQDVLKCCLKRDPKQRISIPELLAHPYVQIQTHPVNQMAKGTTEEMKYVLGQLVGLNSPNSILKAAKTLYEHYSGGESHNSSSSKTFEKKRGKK
In words: Kinase Assay: For the assay 50 nl of a 100-fold concentrated solution of the test compound in DMSO was pipetted into a black low volume 384 well microtiter plate (Greiner Bio-One, Frickenhausen, Germany), 2 ul of a solution of Mps-1 in assay buffer [0.1 mM sodium-ortho-vanadate, 10 mM MgCl2, 2 mM DTT, 25 mM Hepes pH 7.7, 0.05% BSA, 0.001% Pluronic F-127] were added and the mixture was incubated for 15 min at 22° C. to allow pre-binding of the test compounds to Mps-1 before the start of the kinase reaction. Then the kinase reaction was started by the addition of 3 ul of a solution of 16.7 adenosine-tri-phosphate (ATP, 16.7 uM=>final conc. in the 5 ul assay volume is 10 uM) and peptide substrate (1.67 uM=>final conc. in the 5 ul assay volume is 1 uM) in assay buffer and the resulting mixture was incubated for a reaction time of 60 min at 22° C. The concentration of Mps-1 in the assay was adjusted to the activity of the enzyme lot and was chosen appropriate to have the assay in the linear range, typical enzyme concentrations were in the range of about 1 nM (final conc. in the 5 ul assay volume). […].

For the compound `CSc1nc(-c2ccccc2)cn2c(-c3ccc(C(=O)NC4CC4)cc3)cnc12`, the IC50 (as a rule, the midpoint of a concentration-inhibition curve) was found to be 25.7 nM.
For `CSc1nc(C#CCO)cn2c(-c3ccc(-c4cnc(C5CC5)[nH]4)cc3)cnc12` the value was 151 nM.
